Reference: patent publication US20080070868A1, “Novel Thiazole Inhibitors of Fructose 1,6-bisphosphatase” (Metabasis Therapeutics, Inc., priority 2004, published 2008)

What follows are compounds tested on Sprague-Dawley rats (assay: Glucose lowering following oral administration to the fasted, normal rat). Conditions: maximum lowering relative to saline controls, 10 mg/kg oral, 18-h fasted rats.
Format: in vivo
Experimental: Compounds were administered by oral gavage to 18-h fasted, Sprague-Dawley rats (250-300 g, n=3/4/group) at a dose of 10 mg/kg. Phosphonic acids (active moieties) were prepared in deionized water, and the solution adjusted to neutrality with sodium hydroxide. Prodrugs were dissolved in polyethylene glycol (mw 400). Blood samples were taken via tail vein nick immediately prior to dosing and at 1 h intervals thereafter. Blood glucose was analyzed by means of a HemoCue glucose analyzer (HemoCue Inc., Mission Viejo, Calif.). The table below indicates the maximum % glucose lowering achieved relative to control animals dosed with saline.

Structure (SMILES)	inhibition in vivo at 10 mg/kg
CCOC(=O)C(C)(C)NP(=O)(O[C@@H](C)C(=O)OC(C)C)c1ccc(-c2nc(N)sc2C(=O)C(C)(C)C)o1 (some centres unmarked) [Compound 5.10]	4%
CCOC(=O)COP(=O)(NC(C)(C)C(=O)OCC)c1ccc(-c2nc(N)sc2C(=O)C(CC)CC)o1 (centres unmarked) [Compound 5.12]	38%
CCC(CC)C(=O)c1sc(N)nc1-c1ccc(P(=O)(OCCSC(=O)c2ccccc2)OCCSC(=O)c2ccccc2)o1 [Compound 6.2]	3%
CC(C)(C)C(=O)c1sc(N)nc1-c1ccc(P(=O)(OCCSC(=O)c2ccccc2)OCCSC(=O)c2ccccc2)o1 [Compound 6.5]	9%
CCOC(=O)SCCOP(=O)(OCCSC(=O)OCC)c1ccc(-c2nc(N)sc2C(=O)C(C)(C)C)o1 [Compound 6.6]	4%
CC(=O)SC1CCCCC1OP(=O)(OC1CCCCC1SC(C)=O)c1ccc(-c2nc(N)sc2C(=O)C(C)(C)C)o1 (centres unmarked) [Compound 6.8]	1%
CC(C)(C)C(=O)c1sc(N)nc1-c1ccc(P2(=O)OCC[C@@H](c3cccc(Cl)c3)O2)o1 (stereo partly drawn) [Compound 7.1, (cis)-2-amino-5-(2,2-dimethylpropionyl)-4-{[5-(4-(3-chlorophenyl)-2-oxo-1,3,2-phosphorinan-2-yl)]furan-2-yl}thiazole]	70%
CC(C)(C)C(=O)c1sc(N)nc1-c1ccc(P2(=O)OCC[C@H](c3cccc(Cl)c3)O2)o1 (stereo partly drawn) [Compound 7.2, (trans)-2-amino-5-(2,2-dimethylpropionyl)-4-{[5-(4-(3-chlorophenyl)-2-oxo-1,3,2-phosphorinan-2-yl)]furan-2-yl}thiazole]	3%
CCC(CC)C(=O)c1sc(N)nc1-c1ccc(P(=O)(OCOC(=O)C(C)(C)C)OCOC(=O)C(C)(C)C)o1 [Compound 8.2, 2-amino-5-(2-ethylbutyryl)-4-{[5-(O,O′-bis(pivalyloxymethyl)-phosphono)]-furan-2-yl}thiazole]	10%
CCOC(=O)OCOP(=O)(OCOC(=O)OCC)c1ccc(-c2nc(N)sc2C(=O)C(C)(C)C)o1 [Compound 8.3, 2-amino-5-(2,2-dimethylpropionyl)-4-{[5-(O,O′-bis(ethoxycarbonyl-oxymethyl)phosphono)]furan-2-yl}thiazole]	24%
CC(C)(C)C(=O)OCOP(=O)(OCOC(=O)C(C)(C)C)c1ccc(-c2nc(N)sc2C(=O)C(C)(C)C)o1 [Compound 8.4, 2-amino-5-(2,2-dimethylpropionyl)-4-{[5-(O,O′-bis(pivalyloxymethyl)phosphono)]furan-2-yl}thiazole]	6%
